pIC50: −log10 of the molar value.
Legend:
Edg-8 = target: T1, Edg-8 (Homo sapiens, UniProt Q9H228); experiment: Calcium mobilization assay (FLIPR), HTC cells expressing Edg 8; assay type: cell-based; details: inhibition
T1 construct: expressed in transfected cells; host or cells: HTC rat hepatoma cells (from the earlier reading)

Edg-1 = target: T2, Edg-1 (Homo sapiens, UniProt P21453); experiment: Calcium mobilization assay (FLIPR), HTC cells expressing Edg 1; assay type: cell-based; details: inhibition
T2 construct: expressed in transfected cells; host or cells: HTC rat hepatoma cells (from the earlier reading)

Edg-2 = target: T3, Edg-2 (Homo sapiens, UniProt Q92633); experiment: Calcium mobilization assay (FLIPR), HTC cells expressing Edg 2; assay type: cell-based; details: inhibition
T3 construct: expressed in transfected cells; host or cells: HTC rat hepatoma cells (from the earlier reading)

Edg-3 = target: T4, Edg-3 (Homo sapiens, UniProt Q99500); experiment: Calcium mobilization assay (FLIPR), HTC cells expressing Edg 3; assay type: cell-based; details: inhibition
T4 construct: expressed in transfected cells; host or cells: HTC rat hepatoma cells (from the earlier reading)

Edg-7 = target: T5, Edg-7 (Homo sapiens, UniProt Q9UBY5); experiment: Calcium mobilization assay (FLIPR), HTC cells expressing Edg 7; assay type: cell-based; details: inhibition, calcium mobilization
T5 construct: expressed in transfected cells; host or cells: HTC rat hepatoma cells (from the earlier reading)
T5 sequence (Q9UBY5 1-353): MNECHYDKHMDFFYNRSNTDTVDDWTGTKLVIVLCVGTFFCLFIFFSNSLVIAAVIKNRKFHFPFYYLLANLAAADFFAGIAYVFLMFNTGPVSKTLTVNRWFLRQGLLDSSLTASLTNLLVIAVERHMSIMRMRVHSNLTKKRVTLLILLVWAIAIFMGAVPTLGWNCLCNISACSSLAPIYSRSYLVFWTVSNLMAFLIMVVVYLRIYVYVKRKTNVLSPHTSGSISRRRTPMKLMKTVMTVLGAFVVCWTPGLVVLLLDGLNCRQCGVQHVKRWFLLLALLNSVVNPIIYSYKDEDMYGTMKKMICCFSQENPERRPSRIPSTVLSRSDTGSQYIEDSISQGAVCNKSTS

Edg-6 = target: T6, Edg-6 (Homo sapiens, UniProt O95977); experiment: Calcium mobilization assay (FLIPR), HTC cells expressing Edg 6; assay type: cell-based; details: inhibition
T6 construct: expressed in transfected cells; host or cells: HTC rat hepatoma cells (from the earlier reading)
T6 sequence (O95977 1-384): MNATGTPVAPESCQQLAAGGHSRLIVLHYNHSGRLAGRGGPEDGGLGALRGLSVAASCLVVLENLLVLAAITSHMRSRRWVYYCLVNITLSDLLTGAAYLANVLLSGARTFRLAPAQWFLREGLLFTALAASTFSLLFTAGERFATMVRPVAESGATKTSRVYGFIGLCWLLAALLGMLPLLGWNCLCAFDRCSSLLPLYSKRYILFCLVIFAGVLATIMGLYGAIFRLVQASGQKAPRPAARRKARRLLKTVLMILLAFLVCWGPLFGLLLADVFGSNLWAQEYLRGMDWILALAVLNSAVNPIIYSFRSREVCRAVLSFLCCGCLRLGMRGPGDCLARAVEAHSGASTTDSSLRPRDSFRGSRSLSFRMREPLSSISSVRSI

human Edg-4 receptor [1] = target: T7, human Edg-4 receptor (Homo sapiens, UniProt Q9HBW0); experiment: Calcium mobilization assay (FLIPR), HTC rat hepatoma cells transfected with human Edg-4; assay type: cell-based
T7 construct: IC50 Edg-4; other: agonist, calcium mobilization; potency relative to compound 101; calcium response (agonist)
Text: (§1) LPA receptors such as Edg-4, couple to calcium effector pathways, and result in increases in intracellular calcium following receptor activation (An et al., Molecular Pharmacology, 54:881-888, 1998, incorporated herein by reference). This biological response lends itself to a very efficient, high-throughput screen using a Fluorescence Imaging Plate Reader (FLIPR; Molecular Devices, Sunnyvale, Calif.). The FLIPR system is a real-time, cell-based assay system with continuous fluorescence detection using a cooled CCD camera. The FLIPR system was used to developing an Edg-4 receptor screen. Rat hepatoma cells stably expressing Edg-4 receptor were plated on 384-well plates and loaded with a calcium dye loading kit (Molecular Devices, Sunnyvale, Calif.) for 1 hour at room temperature. Cells were then placed on the FLIPR^354 (Molecular Devices, Sunnyvale, Calif.) and excited by an argon laser at 488 nm. The data for the entire 384-well plate was updated every second. An integrated robotic pipettor allowed for simultaneous compound addition into each individual well in the plate.

human Edg-4 receptor [2] = experiment: as above; assay type: cell-based; details: antagonists; Edg-4 relative to other Edg receptors
Text: as §1

Edg-5 = target: T8, Edg-5 (Homo sapiens, UniProt O95136); experiment: Calcium mobilization assay (FLIPR), HTC cells expressing Edg 5; assay type: cell-based; details: inhibition
T8 construct: expressed in transfected cells; host or cells: HTC rat hepatoma cells (from the earlier reading)

Potassium channel [KATP] = target: T9, Potassium channel [KATP] (Cricetus cricetus, UniProt Q09427); experiment: Radioligand binding Potassium Channel [KATP]; parameters: species or system Syrian hamster; details: 10 μM; significance ≧50%
T9 construct: endogenous in cells; host or cells: HIT-T15 Syrian hamster pancreatic beta cells
Procedure: Source: Syrian hamster pancreatic beta cells HIT-T15
Ligand: 5 nM ^3H Glyburide
Incubation Time/Temp: 2 hours at 25° C.
Incubation Buffer: 50 mM MOPS, 0.1 mM CaCl2, pH 7.4
NonSpecific Ligand: 10 μM Glyburide
Quantitation Method: Radioligand Binding
Significance Criteria: ≧50% of max stimulation or inhibition

PLC = target: T10, PLC (Bacillus cereus, UniProt P09598); experiment: Enzyme assay Phospholipase PLC; assay type: biochemical; details: 10 μM
T10 construct: Source: Bacillus cereus; host or cells: Bacillus cereus
Procedure: 9. Phospholipase PLC (Hergenrother et al, 1995, Anal. Biochem. 229:313-316).
Substrate: 400 μM 1,2-Dihexanoyl sn-glycerol-3-phosphocholine
Pre-Incubation Time/Temp: 10 minutes at 37° C.
Incubation Time/Temp: 5 minutes at 37 ° C.
Incubation Buffer: 0.1 M 3,3-dimethylglutaric acid, pH 7.3
Quantitation Method: Spectrophotometric quantitation of phosphorylcholine

PLA2-II = target: T11, PLA2-II (Crotalus atrox, UniProt P00624); experiment: Enzyme assay Phospholipase PLA2-II; assay type: biochemical; details: 300 μM; significance >50%
T11 construct: Source: Crotalus atrox; from tissue
T11 sequence (P00624 17-138): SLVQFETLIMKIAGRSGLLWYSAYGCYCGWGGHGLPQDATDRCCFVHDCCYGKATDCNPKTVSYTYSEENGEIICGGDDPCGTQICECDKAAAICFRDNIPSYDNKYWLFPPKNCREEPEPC
Procedure: 8. Phospholipase PLA2-II (Katsumata et al., 1986, Anal. Biochem. 154:676-681).
Substrate: 0.03 μCi 1 -Palmitoyl-2-[1-^14C]oleoyl-3-phosphatidylcholine
Pre-Incubation Time/Temp: 5 minutes at 37° C.
Incubation Time/Temp: 5 minutes at 37° C.
Incubation Buffer: 0.1M glycine-NaOH, […], pH 9.0
Quantitation Method: Quantitation of [^14C]oleate
Significance Criteria: >50% of max stimulation or inhibition

mouse Edg-4 receptor = target: T12, mouse Edg-4 receptor (Mus musculus, UniProt Q9JL06); experiment: LPA induced calcium mobilization, HTC cells transfected with pooled mouse Edg-4 clones; assay type: cell-based; details: pooled HTC population, FIG. 13
T12 construct: expressed in transfected cells; host or cells: HTC rat hepatoma cells, pooled population
Text: as §1

rat Edg-4 receptor = experiment: LPA induced calcium mobilization, HTC cells transfected with pooled rat Edg-4 clones; assay type: cell-based; details: pooled HTC population, FIG. 12
Text: as §1

T7 sequence (Q9HBW0 1-340 limits assumed): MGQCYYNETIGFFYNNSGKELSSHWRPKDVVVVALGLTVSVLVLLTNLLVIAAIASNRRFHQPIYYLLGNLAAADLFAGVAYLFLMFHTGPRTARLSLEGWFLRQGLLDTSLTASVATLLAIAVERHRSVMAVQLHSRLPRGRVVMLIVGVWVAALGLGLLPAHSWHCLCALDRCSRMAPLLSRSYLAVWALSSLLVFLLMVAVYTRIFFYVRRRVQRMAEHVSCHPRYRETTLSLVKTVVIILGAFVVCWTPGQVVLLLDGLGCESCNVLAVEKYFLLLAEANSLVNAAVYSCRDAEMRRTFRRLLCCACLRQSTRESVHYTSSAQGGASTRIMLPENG
T8 sequence (O95136 whole entry): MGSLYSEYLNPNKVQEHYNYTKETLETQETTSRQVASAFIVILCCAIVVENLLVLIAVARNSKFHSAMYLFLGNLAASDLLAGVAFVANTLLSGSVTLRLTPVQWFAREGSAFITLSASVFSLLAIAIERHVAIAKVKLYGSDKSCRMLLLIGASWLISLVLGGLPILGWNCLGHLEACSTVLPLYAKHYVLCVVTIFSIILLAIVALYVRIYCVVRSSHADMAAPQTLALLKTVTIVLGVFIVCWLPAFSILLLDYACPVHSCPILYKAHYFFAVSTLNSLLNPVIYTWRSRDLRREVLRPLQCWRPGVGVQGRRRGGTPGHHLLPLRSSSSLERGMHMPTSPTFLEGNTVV
T10 sequence (P09598 39-283 limits assumed): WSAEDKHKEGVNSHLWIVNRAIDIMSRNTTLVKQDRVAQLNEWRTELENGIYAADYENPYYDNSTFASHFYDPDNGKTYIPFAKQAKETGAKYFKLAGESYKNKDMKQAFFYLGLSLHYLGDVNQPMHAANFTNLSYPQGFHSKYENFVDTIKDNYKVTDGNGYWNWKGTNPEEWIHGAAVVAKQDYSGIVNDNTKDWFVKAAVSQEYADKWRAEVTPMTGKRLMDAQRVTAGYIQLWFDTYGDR
T9 sequence (Q09427 whole entry): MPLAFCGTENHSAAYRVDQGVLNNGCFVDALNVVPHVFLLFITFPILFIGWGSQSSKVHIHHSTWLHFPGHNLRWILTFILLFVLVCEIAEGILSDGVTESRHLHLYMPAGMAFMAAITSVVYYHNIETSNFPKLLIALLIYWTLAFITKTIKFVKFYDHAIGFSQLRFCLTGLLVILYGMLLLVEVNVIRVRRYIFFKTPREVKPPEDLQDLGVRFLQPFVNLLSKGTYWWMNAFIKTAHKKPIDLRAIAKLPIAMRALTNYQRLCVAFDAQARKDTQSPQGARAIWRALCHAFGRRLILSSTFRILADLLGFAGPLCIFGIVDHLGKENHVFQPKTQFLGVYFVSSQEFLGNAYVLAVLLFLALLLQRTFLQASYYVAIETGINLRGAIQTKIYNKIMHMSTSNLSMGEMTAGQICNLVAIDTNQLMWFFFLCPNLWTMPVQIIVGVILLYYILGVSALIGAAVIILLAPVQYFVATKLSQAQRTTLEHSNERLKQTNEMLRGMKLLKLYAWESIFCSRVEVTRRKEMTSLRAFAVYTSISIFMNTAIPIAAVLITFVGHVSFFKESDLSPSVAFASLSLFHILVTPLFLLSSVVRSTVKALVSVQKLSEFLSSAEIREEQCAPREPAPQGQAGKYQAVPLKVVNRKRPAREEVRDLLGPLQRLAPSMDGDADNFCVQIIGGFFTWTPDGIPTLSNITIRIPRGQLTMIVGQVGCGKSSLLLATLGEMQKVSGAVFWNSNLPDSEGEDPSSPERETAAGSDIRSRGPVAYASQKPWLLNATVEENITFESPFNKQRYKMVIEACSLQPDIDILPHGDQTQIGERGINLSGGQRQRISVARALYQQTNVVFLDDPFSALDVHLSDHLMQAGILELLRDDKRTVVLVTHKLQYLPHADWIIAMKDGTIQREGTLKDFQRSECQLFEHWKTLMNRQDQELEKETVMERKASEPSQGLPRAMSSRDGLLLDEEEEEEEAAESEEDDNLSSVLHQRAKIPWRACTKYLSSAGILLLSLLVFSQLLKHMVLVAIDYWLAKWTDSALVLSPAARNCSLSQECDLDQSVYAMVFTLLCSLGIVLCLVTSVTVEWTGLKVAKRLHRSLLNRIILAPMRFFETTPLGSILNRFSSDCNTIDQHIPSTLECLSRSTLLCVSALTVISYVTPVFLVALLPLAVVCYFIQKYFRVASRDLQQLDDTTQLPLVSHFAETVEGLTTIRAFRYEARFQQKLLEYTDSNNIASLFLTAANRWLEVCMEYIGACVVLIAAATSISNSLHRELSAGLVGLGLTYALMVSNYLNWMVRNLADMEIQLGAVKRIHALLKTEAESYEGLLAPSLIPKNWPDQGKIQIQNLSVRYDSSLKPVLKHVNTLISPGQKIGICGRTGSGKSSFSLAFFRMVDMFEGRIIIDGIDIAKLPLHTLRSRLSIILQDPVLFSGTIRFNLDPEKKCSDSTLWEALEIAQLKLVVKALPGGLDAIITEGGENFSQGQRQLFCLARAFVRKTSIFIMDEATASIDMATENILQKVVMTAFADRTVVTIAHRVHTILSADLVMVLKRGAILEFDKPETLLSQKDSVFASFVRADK
T2 sequence (P21453 whole entry): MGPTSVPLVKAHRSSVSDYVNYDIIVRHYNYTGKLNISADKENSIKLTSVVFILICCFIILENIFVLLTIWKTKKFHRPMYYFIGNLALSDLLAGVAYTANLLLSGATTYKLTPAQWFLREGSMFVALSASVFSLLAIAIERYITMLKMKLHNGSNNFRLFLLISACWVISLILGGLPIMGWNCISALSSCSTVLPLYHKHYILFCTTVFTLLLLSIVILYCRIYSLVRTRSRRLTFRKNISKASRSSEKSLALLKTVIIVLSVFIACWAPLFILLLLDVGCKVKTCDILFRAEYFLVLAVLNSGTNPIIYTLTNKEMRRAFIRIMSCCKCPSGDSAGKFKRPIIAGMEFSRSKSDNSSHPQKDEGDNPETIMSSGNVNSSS
T3 sequence (Q92633 whole entry): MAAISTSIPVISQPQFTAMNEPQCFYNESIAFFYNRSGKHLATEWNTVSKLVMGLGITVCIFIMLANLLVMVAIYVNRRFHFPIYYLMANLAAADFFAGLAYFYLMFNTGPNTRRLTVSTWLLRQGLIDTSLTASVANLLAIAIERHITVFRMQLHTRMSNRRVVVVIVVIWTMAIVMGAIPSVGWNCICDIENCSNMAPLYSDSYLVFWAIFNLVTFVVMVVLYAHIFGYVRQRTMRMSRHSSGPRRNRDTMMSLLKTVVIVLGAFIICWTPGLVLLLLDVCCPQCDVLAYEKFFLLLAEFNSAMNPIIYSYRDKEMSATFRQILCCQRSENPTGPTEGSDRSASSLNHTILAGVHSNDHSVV
T1 sequence (Q9H228 whole entry): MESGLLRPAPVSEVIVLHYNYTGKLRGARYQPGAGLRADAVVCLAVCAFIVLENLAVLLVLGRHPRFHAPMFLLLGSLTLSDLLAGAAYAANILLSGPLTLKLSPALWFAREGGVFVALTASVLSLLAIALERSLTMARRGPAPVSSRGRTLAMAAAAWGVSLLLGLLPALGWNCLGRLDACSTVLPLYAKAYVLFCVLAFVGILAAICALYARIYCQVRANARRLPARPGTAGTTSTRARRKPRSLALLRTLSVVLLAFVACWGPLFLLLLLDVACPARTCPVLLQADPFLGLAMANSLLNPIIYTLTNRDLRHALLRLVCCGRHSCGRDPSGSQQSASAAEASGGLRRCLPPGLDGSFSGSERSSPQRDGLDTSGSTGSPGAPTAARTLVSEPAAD
T12 sequence (Q9JL06 whole entry): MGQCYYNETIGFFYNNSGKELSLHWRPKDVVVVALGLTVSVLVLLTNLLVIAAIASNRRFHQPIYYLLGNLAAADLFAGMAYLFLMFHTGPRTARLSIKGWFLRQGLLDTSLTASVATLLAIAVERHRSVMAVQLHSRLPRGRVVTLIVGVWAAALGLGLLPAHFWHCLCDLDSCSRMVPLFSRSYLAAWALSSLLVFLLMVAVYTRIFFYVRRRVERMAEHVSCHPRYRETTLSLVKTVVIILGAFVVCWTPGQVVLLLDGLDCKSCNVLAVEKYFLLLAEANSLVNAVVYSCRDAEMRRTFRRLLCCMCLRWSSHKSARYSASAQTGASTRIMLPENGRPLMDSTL
T4 sequence (Q99500 whole entry): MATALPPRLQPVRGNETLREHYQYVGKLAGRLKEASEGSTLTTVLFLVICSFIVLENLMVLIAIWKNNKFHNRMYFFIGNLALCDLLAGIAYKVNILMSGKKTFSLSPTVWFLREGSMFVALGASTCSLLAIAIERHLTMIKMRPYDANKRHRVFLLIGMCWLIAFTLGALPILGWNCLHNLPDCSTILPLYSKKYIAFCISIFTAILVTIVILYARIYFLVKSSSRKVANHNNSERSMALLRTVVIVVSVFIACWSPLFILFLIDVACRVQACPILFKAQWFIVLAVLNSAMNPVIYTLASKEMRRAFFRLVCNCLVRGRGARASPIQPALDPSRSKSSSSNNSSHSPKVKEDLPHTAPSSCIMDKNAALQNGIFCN

Question: With `O=C1NN=C(c2ccccc2)C(c2c[nH]c3ccccc23)N1` (stereo not drawn) [Compound 121, 5-(1H-Indol-3-yl)-6-phenyl-4,5-dihydro-2H-[1,2,4]triazin-3-one] as the compound, how does the pIC50 (Edg-8) read?
Answer: < 4.70

Question: And the pIC50 (Edg-1)?
Answer: < 4.70

Question: What about the pIC50 (Edg-2) of the same compound?
Answer: < 4.70

Question: And the pIC50 (Edg-3)?
Answer: < 4.70

Question: What about the pIC50 (Edg-7) of the same compound?
Answer: < 4.70

Question: And the pIC50 (Edg-6)?
Answer: < 4.70

Question: What about the pIC50 (human Edg-4 receptor [1]; inhibition, calcium mobilization) of the same compound?
Answer: 5.44

Question: And the “Fold-selectivity for Edg-4 (IC50)” value (human Edg-4 receptor [2])?
Answer: >5.6

Question: What about the pIC50 (Edg-5) of the same compound?
Answer: < 4.70

Question: Which “activity at Potassium channel [KATP]” value (Potassium channel [KATP]) does the source give for `O=C(CC(=O)C(F)(F)F)Nc1cc(-c2ccccc2)n[nH]1` [Compound 101, 4,4,4-trifluoro-3-oxo-N-(5-phenyl-2H-pyrazol-3-yl)-butyramide] here?
Answer: no significant activity

Question: What about the “activity at PLC” value (PLC) of the same compound?
Answer: no significant activity

Question: What about the “activity at PLA2-II” value (PLA2-II) of the same compound?
Answer: no significant activity

Question: What about the “Fold-selectivity for Edg-4 (IC50)” value (human Edg-4 receptor [2]) of the same compound?
Answer: >29.9

Question: What does the source list for `O=C(CC(=O)C(F)(F)F)Nc1cc(-c2ccc(F)cc2)n[nH]1` [Compound 107]?
Answer: inhibition of LPA-induced calcium mobilization, mouse Edg-4 (mouse Edg-4 receptor): dose dependent inhibition; inhibition of LPA-induced calcium mobilization, rat Edg-4 (rat Edg-4 receptor): dose dependent inhibition; inhibition of LPA-induced calcium mobilization, human Edg-4 (human Edg-4 receptor [1]; clonal HTC cell line, FIG. 11): dose dependent inhibition

Question: For `O=C1NN=C(c2ccccc2)C(c2c[nH]c3ccccc23)N1` (single isomer, unassigned; (+)) [(+)-121, (+)-5-(1H-Indol-3-yl)-6-phenyl-4,5-dihydro-2H-[1,2,4]triazin-3-one], which melting point is on record?
Answer: 281 °C

Question: For `COc1ccc(-c2cc(NC(=O)CC(=O)C(F)(F)F)[nH]n2)cc1` [Compound 105, 4,4-4-trifluoro-N-[5-(4-methoxy-phenyl)-2-pyrazol-3-yl]-3-oxo-butyramide], which “potency relative to compound 101” value (human Edg-4 receptor [1]; dose response curve, FIG. 2) is on record?
Answer: less potent than compound 101

— US20050113283A1, “Methods of treating conditions associated with an EDG-4 receptor” (priority 2002, published 2005)
